From patent US20090136521A1, “Method for Selectively Depleting Hypoxic Cells” (Genetix Pharmaceuticals , Inc., priority 2005, published 2009)
“Also recorded” adds a separate entry of the source.

How the values were obtained:
[1] = system: Cobblestone Area Forming Cell (CAFC) subsets in bone marrow; test: Cobblestone Area Forming Cell (CAFC) content of bone marrow after in vivo treatment; parameters: species or system mice
Method: FIG. 8 is a depiction of CAFC content per hind limb expressed as percent of untreated (saline injected) control following 4×30 mg/kg tirapazamine (TPZ) 2×10 mg/kg Busulfex (BX) or 4 Gy gamma-irradiation. Data represents the mean of bone marrow cell samples pooled from 3-4 individual mice with 95% confidence limits.
5-FU was administered i.p. to B6 recipients at a single dose of 150 mg/kg. At 2 days, the femoral and tibial bone marrow was harvested, pooled from mice and plated for estimate of CAFC content per hind limb. Error bars represent 95% confidence intervals.
Mice: C57BL/6J male mice (with Ly 5.2 marker) obtained from Jackson Laboratories were used for most of the experiments proposed. Mice were maintained in a specific pathogen-free microisolator environment. For some in vivo repopulation assays, B6.5JL-Ptprc^a Pep3^b/BoyJ congenic mice (with Ly5.1 marker) obtained from Jackson Laboratories were used as donors. Bone marrow, thymus, harvest: Bone marrow cells were harvested from mice by crushing the tibias and femurs from the hind limbs in HBSS containing 2% FBS and […] HEPES buffer (HBSS+). Bone marrow cells, thymocytes and splenocytes were passed through 21 gauge needles to get single cell suspensions. The cellularity of bone marrow and thymus was measured by counting total live cells (using trypan blue) and total WBCs (using crystal violet in 3% acetic acid) on a hemocytometer. Measurement of Hoechst perfusion in vivo in mice: The Hoechst dye perfusion in mice was done according to methods previously described in the literature (Durand et al., 1990; Olive et al., 2000; Olive et al., 2002). Briefly, C57BL/6J mice were injected i.v. via the retro-orbital sinus under isoflurane anesthesia with two doses (0.8 mg/mouse) of Hoechst dye (Sigma) at 10 and 5 min before bone marrow harvesting, a period determined to be insufficient for active dye exclusion in vitro. Tibias and femurs were placed immediately on ice, crushed in a pre-cooled mortar and pestle, filtered and suspended in cold HBSS+. Thymus was harvested and thymocyte cell suspension made by passing the cells through 21 gauge needle. The dual emission wavelength of Hoechst fluorescence in bone marrow and thymus was assessed on a logarithmic scale using flow cytometry with exclusion of propidium iodide positive cells. Pimonidazole binding: The detection of hypoxic cells in bone marrow and thymus was done by pimonidazole binding using methods described by Olive et al. (Olive et al., 2000; Olive et al., 2002). Briefly, the mice were injected i.p. with pimonudazole hydrochloride (Chemicon International) at 120 mg/kg dose and the bone marrow as well as thymus were harvested 3 hrs post-injection. […] The fluorescent intensity for staining was measured using flow cytometry. […]

bone marrow = test: Hoechst dye perfusion gradient in bone marrow after 5-FU; assay type: in vivo, mice; conditions: 1 to 6 days after 5-FU; Hoechst dye i.v. 0.8 mg at 5 and 10 min; FIG. 12
Method: At different times after 5-FU, Hoechst dye was injected i.v. (0.8 mg at 5 and 10 min) and the bone marrow analyzed for intensity of Hoechst uptake. The plotted graph gives the red fluorescence intensity for cells at the lower 1% level to show how the Hoechst gradient is shortened at 1 to 6 days after 5-FU and provides evidence for improved oxygenation of the cells that remain after treatment.
(§1) Mice: C57BL/6J male mice (with Ly 5.2 marker) obtained from Jackson Laboratories were used for most of the experiments proposed. Mice were maintained in a specific pathogen-free microisolator environment. […] The cellularity of bone marrow and thymus was measured by counting total live cells (using trypan blue) and total WBCs (using crystal violet in 3% acetic acid) on a hemocytometer. […] Briefly, C57BL/6J mice were injected i.v. via the retro-orbital sinus under isoflurane anesthesia with two doses (0.8 mg/mouse) of Hoechst dye (Sigma) at 10 and 5 min before bone marrow harvesting, a period determined to be insufficient for active dye exclusion in vitro. […] The dual emission wavelength of Hoechst fluorescence in bone marrow and thymus was assessed on a logarithmic scale using flow cytometry with exclusion of propidium iodide positive cells. […] The fluorescent intensity for staining was measured using flow cytometry. […]

SP cells in bone marrow = test: Side Population (SP) cells in bone marrow after 5-FU; assay type: in vivo, mice; conditions: different times after 5-FU; FIG. 13
Method: At different times after 5-FU, bone marrow was harvested, nucleated cells counted and incubated in Hoechst dye for subsequent analysis on efficient (lower gate) and poor (higher gate) dye effluxing cells in the SP tail. While the percent of SP cells appeared to increase from day 1 to day 4, the cell yield continued to decrease and thus the actual number of SP cells per hind limb remained low.
as §1

HSCs = conditions: single dose; Harrison and Lerner, 1991; cited from earlier work

O=c1[nH]cc(F)c(=O)[nH]1 [5-FU, 5-fluorouracil]
primitive late-forming CAFCs, bone marrow content ([1]; 5-FU single dose 150 mg/kg i.p., bone marrow at 2 days, FIG. 11): remain normal | early-forming CAFC subsets, bone marrow content ([1]; 5-FU single dose 150 mg/kg i.p., bone marrow at 2 days, FIG. 11, 150 mg/kg): selectively depletes early-forming CAFCs; also recorded: marked depletion | number of functional HSCs ([1]; after 5-FU): remains unaffected | Hoechst gradient in bone marrow (red fluorescence intensity, lower 1% level) (bone marrow): considerably shortened | percent and overall marrow content of SP cells (SP cells in bone marrow): decreased; also recorded: dramatic decrease | sensitivity of bone marrow HSCs capable of long-term engraftment in irradiated recipients (HSCs): resistant

Nc1n[n+]([O-])c2ccccc2[n+]1[O-] [Tirapazamine, 1,2,4-benzotriazin-3-amine 1,4-dioxide]
depletion of late- versus early-forming CAFC subsets (CAFC content per hind limb) ([1]; TPZ 30 mg/kg i.p. daily over 4 days, bone marrow harvested 24 hours after last treatment, FIG. 8): higher depletion of late-versus early-forming CAFC subsets
